Experimental data as given in US11542233B2, “Compounds, compositions and methods of use” (Aquinnah Pharmaceuticals, Inc., priority 2016, dated 2023).

System: TDP-43 aggregation in PC12 cells stably expressing GFP-tagged mutant TDP-43 (TDP-43^Q33IK::eGFP)
Assay: In vitro efficacy assay: inhibition of TDP-43 inclusions, concentration-response, fluorescence microscopy
Format: cell-based
Conditions: Rattus norvegicus, PC-12, PC12 cells, 1 hour pre-treatment, 15 μM sodium arsenite for 23 hours, 10-point dose response curve
In short: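 PC12 cells stably expressing TDP-43^Q33IK::eGFP pre-treated 1 h with compound, then stressed with 15 μM sodium arsenite for 23 h. Fluorescence microscopy gave the fraction of GFP-positive cells bearing aggregates; IC50 from concentration-response, reported in bins: A <100 nM, B 100–500 nM, C 500 nM–2 μM, D >2 μM.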

Row | Compound | IC50
1 | CCN(C(=O)c1cc2ncccc2[nH]1)[C@H]1CCC[C@@H](NCc2cc3ccccc3o2)C1 [Compound 444] | < 100 nM
2 | CCN(C(=O)c1cc2cc(C#N)ccc2[nH]1)[C@H]1CCC[C@@H](NCc2ccccc2)C1 [Compound 538, N-((1S,3R)-3-(benzylamino)cyclohexyl)-5-cyano-N-ethyl-1H-indole-2-carboxamide] | < 100 nM
3 | CCN(C(=O)c1cc2ccccc2[nH]1)[C@H]1CCC[C@@H](NCc2oc3ccccc3c2C)C1 [Compound 449] | < 100 nM
4 | C#CCOc1ccc(CN[C@@H]2CCC[C@H](N(CC)C(=O)c3nc4c(N)cccc4[nH]3)C2)cc1 [Compound 567] | < 100 nM
5 | CCN(C(=O)c1nc2ccccc2[nH]1)[C@H]1CCC[C@@H](NCc2nc3ccccc3s2)C1 [Compound 488] | < 100 nM
6 | CCN(C(=O)c1cc2ncccc2[nH]1)[C@H]1CCC[C@@H](NCc2cc(C)no2)C1 [Compound 437] | < 100 nM
7 | CCN(C(=O)c1cc2ccccc2[nH]1)[C@H]1CCC[C@@H](NCc2cccnc2)C1 [Compound 108] | 100 to 500 nM
